Assay results: ChEMBL document CHEMBL1136175, “Synthesis and antimycobacterial activity of capuramycin analogues. Part 2: acylated derivatives of capuramycin-related compounds” (Bioorg Med Chem Lett, 2003)
Converted amounts (≈) assume the structure as drawn.

What was measured:
[1] = tested on: Mycobacterium intracellulare; test: Antimycobacterial activity against Mycobacterium intracellular ATCC 1954 E-3; type: functional
Mycobacterium kansasii = test: Antimycobacterial activity against Mycobacterium kansasii ATCC 12478; type: functional
[2] = tested on: Mycolicibacterium smegmatis; test: Antimycobacterial activity was determined against Mycobacterium smegmatis SANK75075; type: functional
[3] = molecular target: T1, Phospho-N-acetylmuramoyl-pentapeptide-transferase (Escherichia coli K-12, UniProt P0A6W3); test: Inhibitory concentration required against Translocase I
T1 sequence (P0A6W3 whole entry): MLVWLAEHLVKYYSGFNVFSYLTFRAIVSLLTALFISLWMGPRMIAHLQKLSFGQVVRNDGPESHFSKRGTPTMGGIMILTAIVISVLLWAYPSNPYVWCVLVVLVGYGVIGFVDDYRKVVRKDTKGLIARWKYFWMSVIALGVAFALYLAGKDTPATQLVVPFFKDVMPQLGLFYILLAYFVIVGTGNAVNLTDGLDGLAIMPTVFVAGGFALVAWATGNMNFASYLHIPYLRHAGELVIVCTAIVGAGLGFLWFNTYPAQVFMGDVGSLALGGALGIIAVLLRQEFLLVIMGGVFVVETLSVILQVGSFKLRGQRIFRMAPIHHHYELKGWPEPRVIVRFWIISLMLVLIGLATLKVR

Mycobacterium avium = test: Antimycobacterial activity against Mycobacterium avium NIHJ1605; type: functional

| Structure (SMILES) | MIC [1] [µg/mL] | MIC (Mycobacterium kansasii) [µg/mL] | MIC [2] [µg/mL] | IC50 [3] [nM] | MIC (Mycobacterium avium) [µg/mL] |
| --- | --- | --- | --- | --- | --- |
| CCCCCCCCOC(=O)O[C@@H]1[C@H](OC)[C@@H]([C@@H](O[C@H]2OC(C(=O)N[C@H]3CCC[C@@H](C)NC3=O)=C[C@H](O)[C@@H]2O)C(N)=O)O[C@H]1n1ccc(=O)[nH]c1=O | 0.5 (≈ 0.676 µM) | 2 (≈ 2.7 µM) | 25 (≈ 33.8 µM) | 676 | 0.25 (≈ 0.338 µM) |
| CCCCCCCOC(=O)O[C@@H]1[C@H](OC)[C@@H]([C@@H](O[C@H]2OC(C(=O)N[C@H]3CCC[C@@H](C)NC3=O)=C[C@H](O)[C@@H]2O)C(N)=O)O[C@H]1n1ccc(=O)[nH]c1=O | 1 (≈ 1.38 µM) | 2 (≈ 2.76 µM) | 50 (≈ 68.9 µM) | 276 | 0.25 (≈ 0.344 µM) |
| CCCCCCCCCC(=O)O[C@@H]1[C@H](OC)[C@@H]([C@@H](O[C@H]2OC(C(=O)Nc3ccccc3)=C[C@H](O)[C@@H]2O)C(N)=O)O[C@H]1n1ccc(=O)[nH]c1=O | 1 (≈ 1.45 µM) | 2 (≈ 2.9 µM) | 6.25 (≈ 9.07 µM) | 2760 | 0.5 (≈ 0.726 µM) |
| CCCCCCCCCCO[C@@H]1[C@H](OC)[C@@H]([C@@H](O[C@H]2OC(C(=O)N[C@H]3CCC[C@@H](C)NC3=O)=C[C@H](O)[C@@H]2O)C(N)=O)O[C@H]1n1ccc(=O)[nH]c1=O | 4 (≈ 5.53 µM) | > 32 | 25 (≈ 34.5 µM) | 884 | 1 (≈ 1.38 µM) |
| CCCCCCCCO[C@@H]1[C@H](OC)[C@@H]([C@@H](O[C@H]2OC(C(=O)N[C@H]3CCC[C@@H](C)NC3=O)=C[C@H](O)[C@@H]2O)C(N)=O)O[C@H]1n1ccc(=O)[nH]c1=O | 2 (≈ 2.87 µM) | > 32 | 50 (≈ 71.9 µM) | 216 | 16 (≈ 23 µM) |
| CCCCCCCCCCCCCCCC(=O)O[C@@H]1[C@H](OC)[C@@H]([C@@H](O[C@H]2OC(C(=O)N[C@H]3CCC[C@@H](C)NC3=O)=C[C@H](O)[C@@H]2O)C(N)=O)O[C@H]1n1ccc(=O)[nH]c1=O | 0.25 (≈ 0.304 µM) | 4 (≈ 4.87 µM) | 6.25 (≈ 7.6 µM) | 523 | < 0.063 |
| CCCCCCCC(=O)O[C@@H]1[C@H](OC)[C@@H]([C@@H](O[C@H]2OC(C(=O)N[C@H]3CCC[C@@H](C)NC3=O)=C[C@H](O)[C@@H]2O)C(N)=O)O[C@H]1n1ccc(=O)[nH]c1=O | 1 (≈ 1.41 µM) | 1 (≈ 1.41 µM) | 25 (≈ 35.2 µM) | 268 | 2 (≈ 2.82 µM) |
| CCCCCCCCCCCCCCC(=O)O[C@@H]1[C@H](OC)[C@@H]([C@@H](O[C@H]2OC(C(=O)N[C@H]3CCCCNC3=O)=C[C@H](O)[C@@H]2O)C(N)=O)O[C@H]1n1ccc(=O)[nH]c1=O | 1 (≈ 1.26 µM) | 4 (≈ 5.04 µM) | 3.13 (≈ 3.94 µM) | – | 2 (≈ 2.52 µM) |
| CCCCC(=O)O[C@@H]1[C@H](OC)[C@@H]([C@@H](O[C@H]2OC(C(=O)N[C@H]3CCC[C@@H](C)NC3=O)=C[C@H](O)[C@@H]2O)C(N)=O)O[C@H]1n1ccc(=O)[nH]c1=O | 2 (≈ 3 µM) | 16 (≈ 24 µM) | 100 (≈ 150 µM) | 35.9 | 32 (≈ 47.9 µM) |
| CO[C@H]1[C@@H](O)[C@H](n2ccc(=O)[nH]c2=O)O[C@@H]1[C@@H](O[C@H]1OC(C(=O)Nc2ccccc2)=C[C@H](O)[C@@H]1O)C(N)=O | 4 (≈ 7.48 µM) | 8 (≈ 15 µM) | 6.25 (≈ 11.7 µM) | 12.2 | 16 (≈ 29.9 µM) |
| CCCCCCCCC(=O)O[C@@H]1[C@H](OC)[C@@H]([C@@H](O[C@H]2OC(C(=O)N[C@H]3CCC[C@@H](C)NC3=O)=C[C@H](O)[C@@H]2O)C(N)=O)O[C@H]1n1ccc(=O)[nH]c1=O | – | – | 25 (≈ 34.5 µM) | 235 | – |
| CCCCCCCCCCCCCCCCCCCCCC(=O)O[C@@H]1[C@H](OC)[C@@H]([C@@H](O[C@H]2OC(C(=O)N[C@H]3CCC[C@@H](C)NC3=O)=C[C@H](O)[C@@H]2O)C(N)=O)O[C@H]1n1ccc(=O)[nH]c1=O | – | – | > 100 | 16600 | – |
| CCCCCCCCCCCCCCCCCCCC(=O)O[C@@H]1[C@H](OC)[C@@H]([C@@H](O[C@H]2OC(C(=O)N[C@H]3CCC[C@@H](C)NC3=O)=C[C@H](O)[C@@H]2O)C(N)=O)O[C@H]1n1ccc(=O)[nH]c1=O | – | – | > 100 | 34200 | – |
| CCCCCCCCCCCCCCCCOC(=O)O[C@@H]1[C@H](OC)[C@@H]([C@@H](O[C@H]2OC(C(=O)N[C@H]3CCC[C@@H](C)NC3=O)=C[C@H](O)[C@@H]2O)C(N)=O)O[C@H]1n1ccc(=O)[nH]c1=O | 2 (≈ 2.35 µM) | 8 (≈ 9.39 µM) | > 100 | > 2930 | 0.5 (≈ 0.587 µM) |
| CCCCCCCCCCCCCC(=O)O[C@@H]1[C@H](OC)[C@@H]([C@@H](O[C@H]2OC(C(=O)N[C@H]3CCCCNC3=O)=C[C@H](O)[C@@H]2O)C(N)=O)O[C@H]1n1ccc(=O)[nH]c1=O | 1 (≈ 1.28 µM) | 4 (≈ 5.13 µM) | 1.56 (≈ 2 µM) | – | 2 (≈ 2.56 µM) |
| CCCCCCCCCCCCCCC(=O)O[C@@H]1[C@H](OC)[C@@H]([C@@H](O[C@H]2OC(C(=O)N[C@H]3CCC[C@@H](C)NC3=O)=C[C@H](O)[C@@H]2O)C(N)=O)O[C@H]1n1ccc(=O)[nH]c1=O | 0.25 (≈ 0.309 µM) | 4 (≈ 4.95 µM) | 6.25 (≈ 7.74 µM) | 2970 | 0.125 (≈ 0.155 µM) |
| CCCCCCCCCCCC(=O)O[C@@H]1[C@H](OC)[C@@H]([C@@H](O[C@H]2OC(C(=O)N[C@H]3CCCCNC3=O)=C[C@H](O)[C@@H]2O)C(N)=O)O[C@H]1n1ccc(=O)[nH]c1=O | 0.125 (≈ 0.166 µM) | 0.125 (≈ 0.166 µM) | 3.13 (≈ 4.16 µM) | – | < 0.063 |
| CCCCCCCCCCCCCCCCC(=O)O[C@@H]1[C@H](OC)[C@@H]([C@@H](O[C@H]2OC(C(=O)N[C@H]3CCC[C@@H](C)NC3=O)=C[C@H](O)[C@@H]2O)C(N)=O)O[C@H]1n1ccc(=O)[nH]c1=O | 8 (≈ 9.57 µM) | 4 (≈ 4.78 µM) | > 100 | – | 2 (≈ 2.39 µM) |
| CO[C@H]1[C@@H](O)[C@H](n2ccc(=O)[nH]c2=O)O[C@@H]1[C@@H](O[C@H]1OC(C(=O)N[C@H]2CCC[C@@H](C)NC2=O)=C[C@H](O)[C@@H]1O)C(N)=O | 4 (≈ 6.85 µM) | 16 (≈ 27.4 µM) | 6.25 (≈ 10.7 µM) | – | 8 (≈ 13.7 µM) |
| CCCCCCCCCCCCCCCCCC(=O)O[C@@H]1[C@H](OC)[C@@H]([C@@H](O[C@H]2OC(C(=O)N[C@H]3CCC[C@@H](C)NC3=O)=C[C@H](O)[C@@H]2O)C(N)=O)O[C@H]1n1ccc(=O)[nH]c1=O | – | – | > 100 | 9410 | – |
| CCCCCCCCCOC(=O)O[C@@H]1[C@H](OC)[C@@H]([C@@H](O[C@H]2OC(C(=O)N[C@H]3CCC[C@@H](C)NC3=O)=C[C@H](O)[C@@H]2O)C(N)=O)O[C@H]1n1ccc(=O)[nH]c1=O | – | – | 12.5 (≈ 16.6 µM) | 1860 | – |
| CCCCCCCCCCC(C)(C)C(=O)O[C@@H]1[C@H](OC)[C@@H]([C@@H](O[C@H]2OC(C(=O)N[C@H]3CCC[C@@H](C)NC3=O)=C[C@H](O)[C@@H]2O)C(N)=O)O[C@H]1n1ccc(=O)[nH]c1=O | – | – | 6.25 (≈ 7.87 µM) | 1260 | – |
| CCCCCCOC(=O)O[C@@H]1[C@H](OC)[C@@H]([C@@H](O[C@H]2OC(C(=O)N[C@H]3CCC[C@@H](C)NC3=O)=C[C@H](O)[C@@H]2O)C(N)=O)O[C@H]1n1ccc(=O)[nH]c1=O | – | – | 50 (≈ 70.3 µM) | 183 | – |
| CCCCCCCCCCC(C)C(=O)O[C@@H]1[C@H](OC)[C@@H]([C@@H](O[C@H]2OC(C(=O)N[C@H]3CCC[C@@H](C)NC3=O)=C[C@H](O)[C@@H]2O)C(N)=O)O[C@H]1n1ccc(=O)[nH]c1=O (stereo partly specified) | – | – | 25 (≈ 32.1 µM) | 769 | – |
